From ChEMBL document CHEMBL4715821, “Discovery of 4-ethoxy-7H-pyrrolo[2,3-d]pyrimidin-2-amines as potent, selective and orally bioavailable LRRK2 inhibitors” (Bioorg Med Chem Lett, 2018)

Experiments:
[1] = biological target: Protein-tyrosine kinase 2-beta (Homo sapiens) (UniProt Q14289); assay: Inhibition of wild-type human full length PYK2 (M1 to E967 residues) expressed in bacterial expression system assessed as residual activity at 1 uM by Kinomescan method relative to control
[2] = biological target: Calcium/calmodulin-dependent protein kinase type IV (Homo sapiens) (UniProt Q16566); assay: Inhibition of wild-type human partial length CAMK4 (A22 to A322 residues) expressed in bacterial expression system assessed as residual activity at 1 uM by Kinomescan method relative to control
[3] = biological target: Ribosomal protein S6 kinase alpha-5 (Homo sapiens) (UniProt O75582); assay: Inhibition of wild-type human partial length N-terminal RPS6KA5 kinase domain 1 expressed in bacterial expression system assessed as residual activity at 1 uM by Kinomescan method relative to control
[4] = biological target: Serine/threonine-protein kinase PAK 1 (Homo sapiens) (UniProt Q13153); assay: Inhibition of wild-type human partial length PAK1 (S149 to H545 residues) expressed in bacterial expression system assessed as residual activity at 1 uM by Kinomescan method relative to control
[5] = biological target: Serine/threonine-protein kinase Sgk2 (Homo sapiens) (UniProt Q9HBY8); assay: Inhibition of wild-type human partial length SGK2 (L54 to C427 residues) expressed in mammalian expression system assessed as residual activity at 1 uM by Kinomescan method relative to control
[6] = biological target: Serine/threonine-protein kinase 10 (Homo sapiens) (UniProt O94804); assay: Inhibition of wild-type human partial length LOK (E16 to V314 residues) expressed in bacterial expression system assessed as residual activity at 1 uM by Kinomescan method relative to control
[7] = biological target: Activin receptor type-1B (Homo sapiens) (UniProt P36896); assay: Inhibition of wild-type human ACVR1B (S187 to I505 residues) expressed in bacterial expression system assessed as residual activity at 1 uM by Kinomescan method relative to control
[8] = biological target: Dual specificity tyrosine-phosphorylation-regulated kinase 1A (Homo sapiens) (UniProt Q13627); assay: Inhibition of wild-type human partial length DYRK1A (H129 to S509 residues) expressed in mammalian expression system assessed as residual activity at 1 uM by Kinomescan method relative to control
[9] = biological target: Testis-specific serine/threonine-protein kinase 6 (Homo sapiens) (UniProt Q9BXA6); assay: Inhibition of SSTK (unknown origin) assessed as residual activity at 1 uM by Kinomescan method relative to control
[10] = biological target: Ribosomal protein S6 kinase alpha-1 (Homo sapiens) (UniProt Q15418); assay: Inhibition of wild-type human partial length N-terminal RSK1 kinase domain 1 (M1 to E388 residues) expressed in bacterial expression system assessed as residual activity at 1 uM by Kinomescan method relative to control
[11] = biological target: Solute carrier organic anion transporter family member 1B1 (Homo sapiens, UniProt Q9Y6L6); assay: Inhibition of human OATP1B1
[12] = biological target: Serine/threonine-protein kinase tousled-like 2 (Homo sapiens) (UniProt Q86UE8); assay: Inhibition of wild-type human partial length TLK2 (E424 to N749 residues) expressed in bacterial expression system assessed as residual activity at 1 uM by Kinomescan method relative to control
[13] = biological target: CDK6/cyclin D1 (Homo sapiens) (UniProt P24385+Q00534); assay: Inhibition of wild-type human full length CDK6 (M1 to A326 residues)/cyclin D1 expressed in mammalian expression system assessed as residual activity at 1 uM by Kinomescan method relative to control
[14] = biological target: Mitogen-activated protein kinase 13 (Homo sapiens) (UniProt O15264); assay: Inhibition of wild-type human full length p38-delta (M1 to L365 residues) expressed in bacterial expression system assessed as residual activity at 1 uM by Kinomescan method relative to control
[15] = biological target: Serine/threonine-protein kinase SIK3 (Homo sapiens) (UniProt Q9Y2K2); assay: Inhibition of SIK3 (unknown origin) assessed as residual activity at 1 uM by Kinomescan method relative to control
[16] = biological target: Serine/threonine-protein kinase D2 (Homo sapiens) (UniProt Q9BZL6); assay: Inhibition of wild-type human partial length PRKD2 (A519 to E838 residues) expressed in bacterial expression system assessed as residual activity at 1 uM by Kinomescan method relative to control
[17] = biological target: Serine/threonine-protein kinase PAK 5 (Homo sapiens) (UniProt Q9P286); assay: Inhibition of PAK5 (unknown origin) assessed as residual activity at 1 uM by Kinomescan method relative to control
[18] = biological target: Serine/threonine-protein kinase Nek7 (Homo sapiens) (UniProt Q8TDX7); assay: Inhibition of wild-type human full length NEK7 (M1 to S302 residues) expressed in bacterial expression system assessed as residual activity at 1 uM by Kinomescan method relative to control
[19] = biological target: Calcium/calmodulin-dependent protein kinase kinase 2 (Homo sapiens) (UniProt Q96RR4); assay: Inhibition of wild-type human partial length CAMKK2 (D65 to V471 residues) expressed in bacterial expression system assessed as residual activity at 1 uM by Kinomescan method relative to control
[20] = biological target: Serine/threonine-protein kinase pim-2 (Homo sapiens) (UniProt Q9P1W9); assay: Inhibition of wild-type human partial length PIM2 (M1 to E291 residues) expressed in bacterial expression system assessed as residual activity at 1 uM by Kinomescan method relative to control
[21] = biological target: Tyrosine-protein kinase JAK3 (Homo sapiens) (UniProt P52333); assay: Inhibition of wild type human partial length JAK3 (I781 to S1124 residues) expressed in mammalian expression system assessed as residual activity at 1 uM by Kinomescan method relative to control
[22] = biological target: SRSF protein kinase 3 (Homo sapiens) (UniProt Q9UPE1); assay: Inhibition of MSSK1 (unknown origin) assessed as residual activity at 1 uM by Kinomescan method relative to control
[23] = biological target: Cyclin-dependent kinase 7/ cyclin H (Homo sapiens) (UniProt P51946+P50613); assay: Inhibition of wild-type human full length CDK7 (M1 to L344 residues)/cyclin H expressed in mammalian expression system assessed as residual activity at 1 uM by Kinomescan method relative to control
[24] = biological target: Vascular endothelial growth factor receptor 2 (Homo sapiens) (UniProt P35968); assay: Inhibition of wild-type human partial length VEGFR2 (R787 to P1253 residues) expressed in mammalian expression system assessed as residual activity at 1 uM by Kinomescan method relative to control
[25] = biological target: Fibroblast growth factor receptor 2 (Homo sapiens) (UniProt P21802); assay: Inhibition of wild type human partial length FGFR2 (D457 to E769 residues) expressed in bacterial expression system assessed as residual activity at 1 uM by Kinomescan method relative to control
[26] = biological target: Maternal embryonic leucine zipper kinase (Homo sapiens) (UniProt Q14680); assay: Inhibition of wild-type human full length MELK (M1 to V651 residues) expressed in bacterial expression system assessed as residual activity at 1 uM by Kinomescan method relative to control

Calcium/calmodulin-dependent protein kinase type IV (Homo sapiens), sequence (Q16566 whole entry, the tested form may be a part): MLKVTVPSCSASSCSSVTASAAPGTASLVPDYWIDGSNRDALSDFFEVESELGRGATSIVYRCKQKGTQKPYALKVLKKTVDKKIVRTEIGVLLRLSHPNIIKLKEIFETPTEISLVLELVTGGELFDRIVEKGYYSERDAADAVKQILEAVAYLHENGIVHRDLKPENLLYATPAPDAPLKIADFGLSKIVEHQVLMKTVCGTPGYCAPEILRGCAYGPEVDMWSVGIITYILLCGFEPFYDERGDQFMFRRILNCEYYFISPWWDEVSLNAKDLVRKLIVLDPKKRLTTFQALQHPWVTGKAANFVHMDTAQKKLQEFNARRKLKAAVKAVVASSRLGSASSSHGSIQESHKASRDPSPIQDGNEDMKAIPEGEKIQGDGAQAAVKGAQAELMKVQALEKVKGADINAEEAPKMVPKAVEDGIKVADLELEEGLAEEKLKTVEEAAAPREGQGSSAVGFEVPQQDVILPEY
Serine/threonine-protein kinase SIK3 (Homo sapiens), sequence (Q9Y2K2 whole entry, looked up, the tested form may be a part): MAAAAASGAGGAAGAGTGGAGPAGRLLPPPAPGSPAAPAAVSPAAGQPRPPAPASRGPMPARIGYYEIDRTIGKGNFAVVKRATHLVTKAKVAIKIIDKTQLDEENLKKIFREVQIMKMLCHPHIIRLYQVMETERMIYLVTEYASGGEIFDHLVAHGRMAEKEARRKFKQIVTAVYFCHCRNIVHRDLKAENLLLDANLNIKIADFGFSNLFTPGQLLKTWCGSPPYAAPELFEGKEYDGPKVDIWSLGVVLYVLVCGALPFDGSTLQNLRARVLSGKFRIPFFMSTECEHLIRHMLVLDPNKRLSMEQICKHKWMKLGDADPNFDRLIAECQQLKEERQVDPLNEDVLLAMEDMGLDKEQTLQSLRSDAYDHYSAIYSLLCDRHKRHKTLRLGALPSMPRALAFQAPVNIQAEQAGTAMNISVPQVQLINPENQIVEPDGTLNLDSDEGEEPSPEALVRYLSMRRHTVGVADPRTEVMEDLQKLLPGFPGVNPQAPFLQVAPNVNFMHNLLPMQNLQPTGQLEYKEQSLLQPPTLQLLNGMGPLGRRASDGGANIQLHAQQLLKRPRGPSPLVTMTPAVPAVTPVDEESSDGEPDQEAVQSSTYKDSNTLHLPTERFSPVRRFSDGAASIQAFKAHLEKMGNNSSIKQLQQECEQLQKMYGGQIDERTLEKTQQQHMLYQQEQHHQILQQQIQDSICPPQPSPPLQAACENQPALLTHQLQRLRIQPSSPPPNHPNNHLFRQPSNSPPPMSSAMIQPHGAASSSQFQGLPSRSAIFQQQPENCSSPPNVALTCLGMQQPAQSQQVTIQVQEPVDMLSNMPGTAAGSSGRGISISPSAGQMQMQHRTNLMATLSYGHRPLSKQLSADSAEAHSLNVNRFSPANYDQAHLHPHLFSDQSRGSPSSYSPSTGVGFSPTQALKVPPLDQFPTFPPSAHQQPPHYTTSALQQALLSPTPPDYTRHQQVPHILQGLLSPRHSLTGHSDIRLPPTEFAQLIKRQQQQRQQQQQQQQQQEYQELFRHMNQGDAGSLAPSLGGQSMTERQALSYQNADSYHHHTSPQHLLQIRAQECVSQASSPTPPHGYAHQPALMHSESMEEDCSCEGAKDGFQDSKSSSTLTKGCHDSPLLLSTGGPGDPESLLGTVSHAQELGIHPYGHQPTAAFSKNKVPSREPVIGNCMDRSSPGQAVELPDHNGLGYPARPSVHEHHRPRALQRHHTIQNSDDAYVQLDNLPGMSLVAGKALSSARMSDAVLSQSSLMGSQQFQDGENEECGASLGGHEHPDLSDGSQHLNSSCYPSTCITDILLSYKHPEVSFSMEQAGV
Serine/threonine-protein kinase PAK 1 (Homo sapiens), sequence (Q13153 whole entry, the tested form may be a part): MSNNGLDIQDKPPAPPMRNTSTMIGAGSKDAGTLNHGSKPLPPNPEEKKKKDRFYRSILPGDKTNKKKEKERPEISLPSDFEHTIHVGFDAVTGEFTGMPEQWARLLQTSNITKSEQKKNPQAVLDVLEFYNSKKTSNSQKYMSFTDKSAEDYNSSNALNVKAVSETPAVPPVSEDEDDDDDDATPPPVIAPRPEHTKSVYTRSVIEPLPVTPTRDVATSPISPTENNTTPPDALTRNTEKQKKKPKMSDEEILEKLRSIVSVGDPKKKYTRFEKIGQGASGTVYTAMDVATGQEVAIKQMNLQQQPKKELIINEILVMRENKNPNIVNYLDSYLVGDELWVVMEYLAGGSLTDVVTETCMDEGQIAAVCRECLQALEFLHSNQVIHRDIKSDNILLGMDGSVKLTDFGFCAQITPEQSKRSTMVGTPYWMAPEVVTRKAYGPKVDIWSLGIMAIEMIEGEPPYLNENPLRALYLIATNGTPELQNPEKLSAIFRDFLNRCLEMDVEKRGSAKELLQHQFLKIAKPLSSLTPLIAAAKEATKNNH
Solute carrier organic anion transporter family member 1B1, sequence (Q9Y6L6 whole entry, the tested form may be a part): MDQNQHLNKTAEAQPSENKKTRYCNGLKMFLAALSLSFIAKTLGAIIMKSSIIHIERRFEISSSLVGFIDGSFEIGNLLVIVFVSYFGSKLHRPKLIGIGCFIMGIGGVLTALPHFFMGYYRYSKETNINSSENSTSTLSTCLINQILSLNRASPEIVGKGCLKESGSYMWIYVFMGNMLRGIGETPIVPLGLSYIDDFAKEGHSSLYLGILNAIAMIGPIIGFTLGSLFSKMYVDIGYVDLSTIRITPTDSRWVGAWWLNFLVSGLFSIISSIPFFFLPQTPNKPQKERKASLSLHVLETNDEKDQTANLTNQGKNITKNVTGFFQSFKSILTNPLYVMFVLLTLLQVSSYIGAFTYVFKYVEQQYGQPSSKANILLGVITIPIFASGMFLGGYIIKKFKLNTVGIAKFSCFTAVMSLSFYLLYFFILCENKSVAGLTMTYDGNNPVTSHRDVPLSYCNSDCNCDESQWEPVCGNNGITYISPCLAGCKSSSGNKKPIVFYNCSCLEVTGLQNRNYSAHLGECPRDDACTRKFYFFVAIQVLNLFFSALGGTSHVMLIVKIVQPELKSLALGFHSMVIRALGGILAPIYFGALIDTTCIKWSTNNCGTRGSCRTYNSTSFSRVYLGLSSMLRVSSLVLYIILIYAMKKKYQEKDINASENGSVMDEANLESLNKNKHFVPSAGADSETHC
Tyrosine-protein kinase JAK3 (Homo sapiens), sequence (P52333 whole entry, the tested form may be a part): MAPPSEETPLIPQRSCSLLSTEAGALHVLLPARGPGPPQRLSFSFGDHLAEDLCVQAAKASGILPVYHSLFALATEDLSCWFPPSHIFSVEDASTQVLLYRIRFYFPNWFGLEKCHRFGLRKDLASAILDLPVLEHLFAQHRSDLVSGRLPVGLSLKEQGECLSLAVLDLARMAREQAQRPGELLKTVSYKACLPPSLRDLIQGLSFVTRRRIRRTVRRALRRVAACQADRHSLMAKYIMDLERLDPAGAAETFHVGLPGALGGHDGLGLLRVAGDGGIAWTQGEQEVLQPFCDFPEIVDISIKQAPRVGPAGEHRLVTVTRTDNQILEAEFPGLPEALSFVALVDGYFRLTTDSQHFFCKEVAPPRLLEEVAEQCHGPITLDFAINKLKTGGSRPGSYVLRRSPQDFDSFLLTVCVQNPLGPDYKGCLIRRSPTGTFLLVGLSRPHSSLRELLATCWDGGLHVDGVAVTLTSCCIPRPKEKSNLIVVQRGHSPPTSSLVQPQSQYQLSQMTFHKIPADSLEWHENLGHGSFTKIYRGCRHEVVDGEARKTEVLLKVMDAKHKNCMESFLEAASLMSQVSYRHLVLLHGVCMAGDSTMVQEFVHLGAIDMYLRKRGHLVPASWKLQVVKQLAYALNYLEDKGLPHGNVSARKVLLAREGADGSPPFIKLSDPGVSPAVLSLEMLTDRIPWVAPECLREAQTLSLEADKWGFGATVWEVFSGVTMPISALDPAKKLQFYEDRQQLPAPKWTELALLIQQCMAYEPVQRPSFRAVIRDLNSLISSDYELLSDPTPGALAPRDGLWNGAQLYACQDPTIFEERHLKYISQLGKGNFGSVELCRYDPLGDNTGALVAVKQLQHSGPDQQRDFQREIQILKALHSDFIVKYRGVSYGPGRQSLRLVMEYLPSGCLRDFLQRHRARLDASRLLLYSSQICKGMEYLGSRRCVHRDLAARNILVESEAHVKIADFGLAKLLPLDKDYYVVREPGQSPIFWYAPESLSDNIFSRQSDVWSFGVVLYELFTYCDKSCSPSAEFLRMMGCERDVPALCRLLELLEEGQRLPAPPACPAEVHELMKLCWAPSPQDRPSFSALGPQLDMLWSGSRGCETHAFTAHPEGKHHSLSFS
Serine/threonine-protein kinase D2 (Homo sapiens), sequence (Q9BZL6 whole entry, the tested form may be a part): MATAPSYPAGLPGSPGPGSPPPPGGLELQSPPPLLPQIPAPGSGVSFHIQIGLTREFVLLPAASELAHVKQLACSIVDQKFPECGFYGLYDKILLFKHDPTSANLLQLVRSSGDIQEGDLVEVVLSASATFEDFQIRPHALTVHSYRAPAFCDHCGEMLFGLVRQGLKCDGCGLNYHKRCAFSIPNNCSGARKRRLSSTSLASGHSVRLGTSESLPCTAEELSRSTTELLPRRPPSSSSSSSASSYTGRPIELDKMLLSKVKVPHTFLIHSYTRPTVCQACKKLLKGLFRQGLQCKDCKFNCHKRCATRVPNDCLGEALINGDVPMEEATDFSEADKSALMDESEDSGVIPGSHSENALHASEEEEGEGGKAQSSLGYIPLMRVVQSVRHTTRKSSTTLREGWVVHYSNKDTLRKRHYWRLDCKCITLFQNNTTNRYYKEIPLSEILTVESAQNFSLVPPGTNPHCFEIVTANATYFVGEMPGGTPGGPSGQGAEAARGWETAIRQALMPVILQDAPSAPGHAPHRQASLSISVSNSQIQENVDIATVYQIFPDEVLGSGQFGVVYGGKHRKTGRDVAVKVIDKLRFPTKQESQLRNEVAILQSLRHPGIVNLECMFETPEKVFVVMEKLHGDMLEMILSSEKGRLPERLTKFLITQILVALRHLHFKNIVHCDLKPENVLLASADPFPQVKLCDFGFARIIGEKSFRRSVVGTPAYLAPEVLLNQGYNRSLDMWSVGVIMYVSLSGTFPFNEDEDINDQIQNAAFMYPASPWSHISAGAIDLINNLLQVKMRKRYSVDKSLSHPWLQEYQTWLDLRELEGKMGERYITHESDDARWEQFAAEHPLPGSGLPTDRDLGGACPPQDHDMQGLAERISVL

CCOc1nc(Nc2ccc(C(=O)N3CCOCC3)cc2OC)nc2[nH]ccc12
Activity [1]: 36.1%
Activity [2]: 90.6%
Activity [3]: 97.6%
Activity [4]: 95.3%
Activity [5]: 88.7%
Activity [6]: 92.7%
Activity [7]: 84.5%
Activity [8]: 72.2%
Activity [9]: 83.3%
Activity [10]: 87.1%
IC50 [11]: 12.6 µM
Activity [12]: 92.5%
Activity [13]: 98.8%
Activity [14]: 109%
Activity [15]: 106%
Activity [16]: 62.1%
Activity [17]: 105%
Activity [18]: 97.7%
Activity [19]: 81.6%
Activity [20]: 94.7%
Activity [21]: 109%
Activity [22]: 78.1%
Activity [23]: 93.8%
Activity [24]: 97.7%
Activity [25]: 111%
Activity [26]: 97.9%
